According to the NIST ThermoML archive (doi:10.1021/je1005196):
Numbers after ± are expanded uncertainties.

Legend:
[1] = Liquid; for speed of sound / mass density: 101.33 kPa; for speed of sound: Linear variable-path acoustic interferometer; for mass density: Pycnometric method
[2] = excess molar enthalpy (molar enthalpy of mixing); xn = mol fraction of the nth substance listed; details: 308.15 K, 101 kPa, Liquid, Calvet calorimetry
[3] = xn = mol fraction of the nth substance listed; details: 308.15 K, 101 kPa, Liquid; for excess molar volume: Direct dilatometry; for speed of sound: Linear variable-path acoustic interferometer

Cc1ccccc1N [2-methylaniline]
[1]
Details	mass density [kg/m3]	speed of sound [m/s]	vapor or sublimation pressure [kPa]
298.15 K	994.2 ± 0.6	1602 ± 3	–
308.15 K	–	–	0.0667 ± 0.08

Details	vapor or sublimation pressure [kPa]
[1], 298.15 K, Closed cell (Static) method	0.04

Cc1ccccc1N [2-methylaniline] + C1CCOCC1
Details	excess molar enthalpy [kcal/mol]	excess molar volume [m3/mol]	speed of sound [m/s]
[2], x2 = 0.0701	-0.0286 ± 0.000693	–	–
[2], x2 = 0.1765	-0.0678 ± 0.00151	–	–
[2], x2 = 0.2379	-0.0874 ± 0.00191	–	–
[2], x2 = 0.295	-0.103 ± 0.00225	–	–
[2], x2 = 0.3344	-0.113 ± 0.00239	–	–
[2], x2 = 0.3911	-0.124 ± 0.00263	–	–
[2], x2 = 0.435	-0.137 ± 0.00287	–	–
[2], x2 = 0.4901	-0.137 ± 0.00287	–	–
[2], x2 = 0.5521	-0.139 ± 0.00311	–	–
[2], x2 = 0.6276	-0.136 ± 0.00287	–	–
[2], x2 = 0.6982	-0.126 ± 0.00263	–	–
[2], x2 = 0.741	-0.117 ± 0.00263	–	–
[2], x2 = 0.8546	-0.0792 ± 0.00174	–	–
[2], x2 = 0.9201	-0.048 ± 0.00108	–	–
[3], x2 = 0.0832	–	–	1535 ± 3
[3], x2 = 0.1451	–	–	1505 ± 3
[3], x2 = 0.1881	–	-3.94e-07 ± 5e-09	–
[3], x2 = 0.2102	–	–	1475 ± 3
[3], x2 = 0.2321	–	-4.57e-07 ± 5e-09	–
[3], x2 = 0.2918	–	–	1441 ± 3
[3], x2 = 0.2967	–	-5.47e-07 ± 6e-09	–
[3], x2 = 0.3245	–	-5.75e-07 ± 6e-09	–
[3], x2 = 0.3581	–	–	1414 ± 3
[3], x2 = 0.3834	–	-6.36e-07 ± 7e-09	–
[3], x2 = 0.4002	–	–	1399 ± 3
[3], x2 = 0.4704	–	-7.08e-07 ± 8e-09	–
[3], x2 = 0.4981	–	–	1364 ± 3
[3], x2 = 0.5181	–	-7.32e-07 ± 8e-09	–
[3], x2 = 0.5423	–	-7.37e-07 ± 8e-09	–
[3], x2 = 0.5638	–	–	1343 ± 3
[3], x2 = 0.6112	–	-7.45e-07 ± 8e-09	–
[3], x2 = 0.6118	–	–	1328 ± 3
[3], x2 = 0.6877	–	-7.22e-07 ± 8e-09	–
[3], x2 = 0.7148	–	–	1299 ± 3
[3], x2 = 0.7414	–	-6.82e-07 ± 7e-09	–
[3], x2 = 0.7981	–	–	1277 ± 3
[3], x2 = 0.8213	–	-5.66e-07 ± 6e-09	–
[3], x2 = 0.8412	–	–	1267 ± 3
[3], x2 = 0.8974	–	-3.81e-07 ± 5e-09	–
[3], x2 = 0.9003	–	–	1253 ± 3
[3], x2 = 0.9426	–	-2.35e-07 ± 3e-09	–
[3], x2 = 0.9628	–	–	1240 ± 3

CNc1ccccc1 [N-methylaniline]
[1]
Details	mass density [kg/m3]	speed of sound [m/s]	vapor or sublimation pressure [kPa]
298.15 K	982.4 ± 1.3	1572 ± 3	–
308.15 K	–	–	0.1067 ± 0.08

Details	vapor or sublimation pressure [kPa]
[1], 298.15 K, Closed cell (Static) method	0.0667 ± 0.08

CNc1ccccc1 [N-methylaniline] + C1CCOCC1
Details	excess molar enthalpy [kcal/mol]	excess molar volume [m3/mol]	speed of sound [m/s]
[2], x2 = 0.0856	-0.0264 ± 0.000645	–	–
[2], x2 = 0.1321	-0.0407 ± 0.000932	–	–
[2], x2 = 0.1976	-0.06 ± 0.00134	–	–
[2], x2 = 0.2434	-0.0727 ± 0.0016	–	–
[2], x2 = 0.3122	-0.0899 ± 0.00196	–	–
[2], x2 = 0.3876	-0.105 ± 0.00229	–	–
[2], x2 = 0.4444	-0.114 ± 0.00239	–	–
[2], x2 = 0.4878	-0.119 ± 0.00263	–	–
[2], x2 = 0.5548	-0.122 ± 0.00263	–	–
[2], x2 = 0.6233	-0.121 ± 0.00263	–	–
[2], x2 = 0.6921	-0.113 ± 0.00239	–	–
[2], x2 = 0.7432	-0.104 ± 0.00227	–	–
[2], x2 = 0.8767	-0.0624 ± 0.00139	–	–
[2], x2 = 0.9549	-0.0256 ± 0.000621	–	–
[3], x2 = 0.0541	–	–	1509 ± 3
[3], x2 = 0.0764	–	-7.2e-08 ± 2e-09	–
[3], x2 = 0.1321	–	–	1490 ± 3
[3], x2 = 0.1416	–	-1.25e-07 ± 3e-09	–
[3], x2 = 0.1921	–	-1.59e-07 ± 3e-09	–
[3], x2 = 0.2316	–	–	1468 ± 3
[3], x2 = 0.244	–	-1.89e-07 ± 3e-09	–
[3], x2 = 0.2811	–	–	1457 ± 3
[3], x2 = 0.2905	–	-2.1e-07 ± 3e-09	–
[3], x2 = 0.3451	–	-2.27e-07 ± 3e-09	–
[3], x2 = 0.3612	–	–	1437 ± 3
[3], x2 = 0.3984	–	-2.37e-07 ± 3e-09	–
[3], x2 = 0.4112	–	–	1424 ± 3
[3], x2 = 0.4515	–	-2.4e-07 ± 3e-09	–
[3], x2 = 0.4932	–	–	1400 ± 3
[3], x2 = 0.5224	–	-2.34e-07 ± 3e-09	–
[3], x2 = 0.5638	–	–	1377 ± 3
[3], x2 = 0.613	–	-2.1e-07 ± 3e-09	–
[3], x2 = 0.6148	–	–	1360 ± 3
[3], x2 = 0.6873	–	-1.78e-07 ± 3e-09	–
[3], x2 = 0.6919	–	–	1332 ± 3
[3], x2 = 0.7418	–	–	1313 ± 3
[3], x2 = 0.7531	–	-1.44e-07 ± 3e-09	–
[3], x2 = 0.8141	–	–	1287 ± 3
[3], x2 = 0.8231	–	-1.03e-07 ± 2e-09	–
[3], x2 = 0.8992	–	–	1257 ± 3
[3], x2 = 0.9191	–	-4.5e-08 ± 2e-09	–
[3], x2 = 0.9514	–	–	1239 ± 3

Nc1ccccc1 [aniline]
[1]
Details	mass density [kg/m3]	speed of sound [m/s]	vapor or sublimation pressure [kPa]
298.15 K	1017.2 ± 0.6	1635 ± 3	–
308.15 K	–	–	0.12 ± 0.08

Details	vapor or sublimation pressure [kPa]
[1], 298.15 K, Closed cell (Static) method	0.0933 ± 0.08

Nc1ccccc1 [aniline] + C1CCOCC1
Details	excess molar enthalpy [kcal/mol]	excess molar volume [m3/mol]	speed of sound [m/s]
[2], x2 = 0.0545	-0.02 ± 0.000502	–	–
[2], x2 = 0.1711	-0.0599 ± 0.00134	–	–
[2], x2 = 0.2234	-0.0767 ± 0.0017	–	–
[2], x2 = 0.2761	-0.0929 ± 0.00203	–	–
[2], x2 = 0.3509	-0.114 ± 0.00239	–	–
[2], x2 = 0.4214	-0.132 ± 0.00287	–	–
[2], x2 = 0.5512	-0.155 ± 0.00335	–	–
[2], x2 = 0.5879	-0.158 ± 0.00335	–	–
[2], x2 = 0.6213	-0.159 ± 0.00335	–	–
[2], x2 = 0.6821	-0.157 ± 0.00335	–	–
[2], x2 = 0.7511	-0.147 ± 0.00311	–	–
[2], x2 = 0.8145	-0.128 ± 0.00287	–	–
[2], x2 = 0.8914	-0.0893 ± 0.00196	–	–
[2], x2 = 0.9413	-0.0539 ± 0.00122	–	–
[3], x2 = 0.0702	–	-9.7e-08 ± 2e-09	–
[3], x2 = 0.0912	–	–	1564 ± 3
[3], x2 = 0.1516	–	–	1543 ± 3
[3], x2 = 0.1767	–	-2.45e-07 ± 3e-09	–
[3], x2 = 0.2381	–	-3.22e-07 ± 4e-09	–
[3], x2 = 0.2414	–	–	1510 ± 3
[3], x2 = 0.2952	–	-3.84e-07 ± 5e-09	–
[3], x2 = 0.299	–	–	1490 ± 3
[3], x2 = 0.3347	–	-4.2e-07 ± 5e-09	–
[3], x2 = 0.3541	–	–	1470 ± 3
[3], x2 = 0.3913	–	-4.59e-07 ± 5e-09	–
[3], x2 = 0.4354	–	-4.8e-07 ± 5e-09	–
[3], x2 = 0.4417	–	–	1438 ± 3
[3], x2 = 0.4904	–	-4.92e-07 ± 6e-09	–
[3], x2 = 0.5312	–	–	1404 ± 3
[3], x2 = 0.5525	–	-4.87e-07 ± 5e-09	–
[3], x2 = 0.5943	–	–	1379 ± 3
[3], x2 = 0.628	–	-4.56e-07 ± 5e-09	–
[3], x2 = 0.6511	–	–	1357 ± 3
[3], x2 = 0.6989	–	-4.01e-07 ± 5e-09	–
[3], x2 = 0.7344	–	–	1324 ± 3
[3], x2 = 0.7412	–	-3.59e-07 ± 4e-09	–
[3], x2 = 0.8117	–	–	1294 ± 3
[3], x2 = 0.8548	–	-2.15e-07 ± 3e-09	–
[3], x2 = 0.883	–	–	1267 ± 3
[3], x2 = 0.9204	–	-1.19e-07 ± 3e-09	–
[3], x2 = 0.9413	–	–	1245 ± 3
[3], x2 = 0.9812	–	–	1231 ± 3

C1CCOCC1 [tetrahydropyran]
[1]
Details	mass density [kg/m3]	vapor or sublimation pressure [kPa]
298.15 K	868.6 ± 0.5	–
308.15 K	–	13.79 ± 0.47

Details	vapor or sublimation pressure [kPa]
[1], 298.15 K, Closed cell (Static) method	9.533 ± 0.08
